According to US12178838B2, “Synthetic neuromodulatory peptides” (Lactocore, Inc., priority 2019, dated 2024):

How the values were obtained:
Format in all cases: in vivo
BALB/C mice [1] = test: Marble Burying test in mice; settings: ip; Diazepam 0.75 mg/kg; FQSE 5 mg/kg; 30 minutes
Method: (§1) After an adaptation period, the test substance was intraperitoneally injected into mice. Behavioral parameters were measured in 30 minutes after injection. The tests were administered as follows: day 1—the Open field test, day 3—the Elevated plus maze test, day 5—the Marble burying test, days 12-13—the Porsolt swim (two-day modification) test.
In the marble burying test, the installation is a standard T3 cage (19 cm×29 cm×13 cm) filled with bedding material. The standard glass marbles (15 mm in diameter, weight 5.2 g, arbitrary color) were used for the test. Twenty marbles were evenly spaced on the surface in 4 rows, 5 pieces each. The animal was placed in the testing cage for 30 minutes. At the end of the period, after the animal was carefully removed, the number of marbles that were more than two-thirds covered with bedding material was counted.
(§2) All substances were injected intraperitoneally in a volume of 10 μl of solution per 1 gram of animal weight 30 minutes prior to behavioral testing.

BALB/C mice [2] = test: Open Field test in mice; settings: Diazepam 0.75 mg/kg
Method: as §1
In the Open field test, the installation is an arena with a diameter of 63 cm, illuminated by bright light (500 lux) (OpenScience, Russia). The following parameters were measured during 5-minute experiment: a total distance (cm), a time of motion (if the speed is more than 5 cm/s), an immobility (if the speed is less than 0.2 cm/sec), a mean and maximum velocity, and a number of episodes of motor activity and “freezing”. The same set of parameters, as well as latent period and time duration of stay, were recorded for the central sector of the arena. Defecations and rearing (animal raise upright on hind limbs) were assessed visually (File and Wardill (1975) Validity of head-dipping as a measure of exploration in a modified hole-board. Psychopharmacol., 44, 53-59). The test is designed to measure the level of motor and exploratory activity.
as §2

[3] = tested on: Wistar rats after chronic unpredictable mild stress; test: CUMS model: Elevated Plus Maze test
Method: (§3) During stress, the animals were placed in individual cells and exposed to stressful conditions each day for 26 days. Two stressors were used daily, applied in the following order: • Day 1. 10 am-6 pm, rats were placed in a cold room for an hour. From 6 PM to 10 am the lights were turned on and off every 2 hours. • Day 2. 10 am-6 pm, cage tilted to 45°. From 6 PM to 10 am water deprivation. • Day 3. 10 am-6 pm, stroboscopic light. From 6 PM to 10 am the light was left on overnight. • Day 4. 10 am-6 pm, wet bedding. From 6 PM to 10 am the animals were put in a small mouse cage. • Day 5. 10 am-6 pm, no bedding. From 6 PM to 10 am the lights were turned on and off every 2 hours. • Day 6. 10 am-6 pm, a new rat was placed in the cage (6-month-old). From 6 PM to 10 am the light was left on overnight. • Day 7. 10 am-6 pm, white noise. From 6 PM to 10 am a stroboscopic light was turned on at night. • Day 8-26. Repetition of previously used stressors in the specified sequence.
(§4) Experimental substances were administered daily starting from the 58-59 day of the experiment. The administration took place 30 minutes before the start of behavioral testing. On days when there were no tests, the substances were administered in the morning.
The Elevated Plus Maze test was used to assess the level of anxiety, motor, and exploratory activity of laboratory animals. The apparatus consisted of two closed and two open arms opposite to each other (arm's length 45 cm) with the height of the sides of the closed arm −10 cm. The entire installation was raised on a stand 70 cm above the base. Rats were placed in the center of the maze with their heads facing the open arm. Within 5 minutes the number of exits to open arms and time spent in them, the number of transitions between arms, the time of rest, the duration and number of grooming acts, the number of stretch-attend postures into the open arms of the maze, and the number of rears were recorded. Normally, rodents tend to stay in the dark arms.

[4] = tested on: Wistar rats after chronic unpredictable mild stress; test: CUMS model: Novelty Suppressed Feeding Test
Method: as §3, §4
To assess anxiety and food motivation, a test for eating behavior in a new environment was used. […] The time to start eating and the duration of consumption were recorded. […]

Sprague Dawley rats = settings: FQSE 0.5 mg/kg i.n.; diazepam 2 mg/kg IP
Method: The five doses of FQSE (SEQ ID NO:10) (0.01, 0.1, 0.5, 1 and 3 mg/kg, CS, Menlo Park, CA) were prepared fresh for each test day in sterile saline and administered intranasally (i.n.) 30 minutes prior to testing. Fifteen rats per group per peptide dose were tested with the exception that there were twenty rats in the vehicle (0) group. Each dose was administered in a randomized order across rats. Prior to dosing, the rats were lightly anesthetized (till loss of righting reflex) with isoflurane (2.5%, 0.5 L/min oxygen), placed in the recumbent position, then a thin plastic pipette (Fischer Scientific) inserted into the nares and peptide administered at a volume of 15-20 uL per nares. […]
Open field tests occurred in open field apparatus constructed of gray Plexiglas (17″L×17″ W×12″ H (43.2 cm×43.2 cm×30.5 cm; Noldus, Leesburg, VA) with digital cameras positioned above the arenas to detect different measures of activity using specialized software (Ethovision, XT12). Rats were first allowed to acclimate to the testing room for 30 minutes while in their home cage. The test was initiated by placing the animal in the center of the open field chamber and behavior recorded for 30 minutes. The observer was not in the room during testing. Testing was conducted under red-light. Arenas were cleaned thoroughly between subjects with LpH disinfectant. […]

CN1C(=O)CN=C(c2ccccc2)c2cc(Cl)ccc21 [Diazepam]
number of marbles buried (BALB/C mice [1]): 1.2±0.39
total distance (BALB/C mice [2]; ip 30 min before, FQSE 1 mg/kg): 2542.2±179.77 cm
time the animals spent in the center (BALB/C mice [2]; ip): not significantly different
number of center entries (BALB/C mice [2]; ip, FQSE 1 mg/kg): not significantly different
number of rearings (BALB/C mice [2]; ip, FQSE 1 mg/kg): 10.8±2.1
result obtained in EPM (1 administration) ([3]; CUMS, FQSE 0.5 mg/kg, Diazepam): sedative effects
time spent on the open arms ([3]; Diazepam 0.5 mg/kg i.p., 1 injection, vs stressed animals treated with solvent): increase
freezing time ([3]; Diazepam 0.5 mg/kg i.p., vs control group): increase of freezing
result obtained in NSFT (11 administrations) ([4]; CUMS, FQSE 0.5 mg/kg, Diazepam): anxiolytic effect
latency to start eating ([4]; FQSE 0.5 mg/kg i.n., diazepam 0.5 mg/kg i.p., 11 days): significant decrease in latency
center zone entries (Sprague Dawley rats): 54.3±6.2
total distance (Sprague Dawley rats): 5289±263 cm
